In patent US7642245B2, “Antibacterial compounds having a (pyrrole carboxamide)-(benzamide)-(imidazole carboxamide) motif” (Oscient Pharmaceuticals Corporation, priority 2002, dated 2010):

Experiments:
E. coli ATCC 25922 = experiment: MIC, NCCLS broth microdilution; type: cell-based, Escherichia coli; details: G = E. coli ATCC 25922
From the text: (§1) In vitro biological activity data were collected for a variety of microorganisms, including Staphylococcus aureus (ATCC 27660, a methicillin resistant strain (MRSA); ATCC 13709, a methicillin sensitive strain (MSSA)), Enterococcus faecalis (ATCC 29212), Bacillus cereus (ATCC 11778), Streptococcus pneumoniae (ATCC 49619), Candida albicans (ATCC 38247), Escherichia coli (ATCC 25922), and Moraxella (now Branhamella) catarrhalis (ATCC 25238).
(§2) The minimal inhibition concentration (MIC) of these compounds was determined using the National Committee for Clinical Laboratory Standards (NCCLS) broth microdilution assay in microtiter plates, as set forth in: (1) the guidelines of the National Committee for Clinical Laboratory Standards (NCCLS) Document M7-A4 (NCCLS, 1997); (2) the guidelines of the National Committee for Clinical Laboratory Standards (NCCLS) Document M11-A4 (NCCLS, 1997); and (3) the guidelines and reference method of the National Committee for Clinical Laboratory Standards (NCCLS) Document M27-T (NCCLS, 1995). For antifungal assays, the method recommended in Murray, P R., 1995 Manual of Clinical Microbiology (ASM Press, Washington, DC.), was employed.

E. faecalis ATCC 29212 = experiment: MIC, NCCLS broth microdilution; type: cell-based, Enterococcus faecalis; details: C = E. faecalis ATCC 29212
From the text: as §1, §2

B. cereus ATCC 11778 = experiment: MIC, NCCLS broth microdilution; type: cell-based, Bacillus cereus; details: D = B. cereus ATCC 11778
From the text: as §1, §2

C. albicans ATCC 38247 = experiment: MIC, antifungal assay; type: cell-based, Candida albicans; details: F = C. albicans ATCC 38247
From the text: as §1, §2

S. pneumoniae ATCC 49619 = experiment: MIC, NCCLS broth microdilution; type: cell-based, Streptococcus pneumoniae; details: E = S. pneumoniae ATCC 49619
From the text: as §1, §2

S. aureus ATCC 27660 = experiment: MIC, NCCLS broth microdilution; type: cell-based, Staphylococcus aureus; details: B = S. aureus ATCC 27660 (MRSA)
From the text: as §1, §2

S. aureus ATCC 13709 = experiment: MIC, NCCLS broth microdilution; type: cell-based, Staphylococcus aureus; details: A = S. aureus ATCC 13709 (MSSA)
From the text: as §1, §2

[1] = tested on: M. catarrhalis (ATCC 25238); experiment: MIC, NCCLS broth microdilution; type: cell-based, Moraxella (now Branhamella) catarrhalis; details: H = M. catarrhalis (ATCC 25238)
From the text: as §1, §2

SMILES	Minimum Inhibitory Concentration (MIC) (E. coli ATCC 25922)	Minimum Inhibitory Concentration (MIC) (E. faecalis ATCC 29212)	Minimum Inhibitory Concentration (MIC) (B. cereus ATCC 11778)	Minimum Inhibitory Concentration (MIC) (C. albicans ATCC 38247)	Minimum Inhibitory Concentration (MIC) (S. pneumoniae ATCC 49619)	Minimum Inhibitory Concentration (MIC) (S. aureus ATCC 27660)	Minimum Inhibitory Concentration (MIC) (S. aureus ATCC 13709)	Minimum Inhibitory Concentration (MIC) [1]
Cn1cc(NC(=O)c2cc3ccccc3cn2)cc1C(=O)Nc1ccc(C(=O)Nc2cn(C)c(C(=O)NCCN3CCCC(O)C3)n2)cc1 (racemic) [Compound A-69]	>32 µg/mL	+++ (MIC ≦ 4 μg/mL)	+++ (MIC ≦ 4 μg/mL)	>32 µg/mL	+++ (MIC ≦ 4 μg/mL)	+++ (MIC ≦ 4 μg/mL)	+++ (MIC ≦ 4 μg/mL)	+++ (MIC ≦ 4 μg/mL)
Cn1cc(NC(=O)c2cc3ccccc3cn2)cc1C(=O)Nc1ccc(C(=O)Nc2cn(C)c(C(=O)NCCN3CCC(O)C3)n2)cc1 (racemic) [Compound A-71]	+++ (MIC ≦ 4 μg/mL)	+++ (MIC ≦ 4 μg/mL)	+++ (MIC ≦ 4 μg/mL)	>32 µg/mL	+++ (MIC ≦ 4 μg/mL)	+++ (MIC ≦ 4 μg/mL)	+++ (MIC ≦ 4 μg/mL)	+++ (MIC ≦ 4 μg/mL)
Cn1cc(NC(=O)c2sccc2Cl)cc1C(=O)Nc1ccc(C(=O)Nc2cn(C)c(C(=O)NCCN3CCC(O)CC3)n2)cc1 [Compound A-1]	>32 µg/mL	+++ (MIC ≦ 4 μg/mL)	+++ (MIC ≦ 4 μg/mL)	>32 µg/mL	+++ (MIC ≦ 4 μg/mL)	+++ (MIC ≦ 4 μg/mL)	+++ (MIC ≦ 4 μg/mL)	+ (12 ≦ MIC ≦ 32 μg/mL)
Cn1cc(NC(=O)c2cccc(F)n2)cc1C(=O)Nc1ccc(C(=O)Nc2cn(C)c(C(=O)NCCN3CCC(O)CC3)n2)cc1 [Compound A-2]	>32 µg/mL	+++ (MIC ≦ 4 μg/mL)	+++ (MIC ≦ 4 μg/mL)	>32 µg/mL	+++ (MIC ≦ 4 μg/mL)	+++ (MIC ≦ 4 μg/mL)	+++ (MIC ≦ 4 μg/mL)	+ (12 ≦ MIC ≦ 32 μg/mL)
Cn1cc(NC(=O)c2sc3ccccc3c2Cl)cc1C(=O)Nc1ccc(C(=O)Nc2cn(C)c(C(=O)NCCN3CCC(O)CC3)n2)cc1 [Compound A-3]	>32 µg/mL	+++ (MIC ≦ 4 μg/mL)	+++ (MIC ≦ 4 μg/mL)	>32 µg/mL	+++ (MIC ≦ 4 μg/mL)	+++ (MIC ≦ 4 μg/mL)	+++ (MIC ≦ 4 μg/mL)	++ (4 < MIC < 12 μg/mL)
Cn1cc(NC(=O)c2ccc(Cl)cc2F)cc1C(=O)Nc1ccc(C(=O)Nc2cn(C)c(C(=O)NCCN3CCC(O)CC3)n2)cc1 [Compound A-4]	++ (4 < MIC < 12 μg/mL)	+++ (MIC ≦ 4 μg/mL)	+++ (MIC ≦ 4 μg/mL)	+ (12 ≦ MIC ≦ 32 μg/mL)	+++ (MIC ≦ 4 μg/mL)	+++ (MIC ≦ 4 μg/mL)	+++ (MIC ≦ 4 μg/mL)	+++ (MIC ≦ 4 μg/mL)
Cn1cc(NC(=O)c2nccc3ccccc23)cc1C(=O)Nc1ccc(C(=O)Nc2cn(C)c(C(=O)NCCN3CCC(O)CC3)n2)cc1 [Compound A-5]	>32 µg/mL	+++ (MIC ≦ 4 μg/mL)	+++ (MIC ≦ 4 μg/mL)	>32 µg/mL	+++ (MIC ≦ 4 μg/mL)	+++ (MIC ≦ 4 μg/mL)	+++ (MIC ≦ 4 μg/mL)	>32 µg/mL
Cn1cc(NC(=O)c2cc3cc4c(cc3cn2)OCO4)cc1C(=O)Nc1ccc(C(=O)Nc2cn(C)c(C(=O)NCCN3CCC(O)CC3)n2)cc1 [Compound A-6]	+ (12 ≦ MIC ≦ 32 μg/mL)	+++ (MIC ≦ 4 μg/mL)	+++ (MIC ≦ 4 μg/mL)	+ (12 ≦ MIC ≦ 32 μg/mL)	+++ (MIC ≦ 4 μg/mL)	+++ (MIC ≦ 4 μg/mL)	+++ (MIC ≦ 4 μg/mL)	++ (4 < MIC < 12 μg/mL)
Cn1cc(NC(=O)c2cc3c([N+](=O)[O-])cccc3cn2)cc1C(=O)Nc1ccc(C(=O)Nc2cn(C)c(C(=O)NCCN3CCC(O)CC3)n2)cc1 [Compound A-7]	>32 µg/mL	+++ (MIC ≦ 4 μg/mL)	+++ (MIC ≦ 4 μg/mL)	>32 µg/mL	+++ (MIC ≦ 4 μg/mL)	+++ (MIC ≦ 4 μg/mL)	+++ (MIC ≦ 4 μg/mL)	+ (12 ≦ MIC ≦ 32 μg/mL)
Cn1cc(NC(=O)c2cc3c(N)cccc3cn2)cc1C(=O)Nc1ccc(C(=O)Nc2cn(C)c(C(=O)NCCN3CCC(O)CC3)n2)cc1 [Compound A-8]	++ (4 < MIC < 12 μg/mL)	+++ (MIC ≦ 4 μg/mL)	+++ (MIC ≦ 4 μg/mL)	++ (4 < MIC < 12 μg/mL)	+++ (MIC ≦ 4 μg/mL)	+++ (MIC ≦ 4 μg/mL)	+++ (MIC ≦ 4 μg/mL)	++ (4 < MIC < 12 μg/mL)
Cn1cc(NC(=O)c2cc3c(Cl)cccc3cn2)cc1C(=O)Nc1ccc(C(=O)Nc2cn(C)c(C(=O)NCCN3CCC(O)CC3)n2)cc1 [Compound A-9]	++ (4 < MIC < 12 μg/mL)	+++ (MIC ≦ 4 μg/mL)	+++ (MIC ≦ 4 μg/mL)	++ (4 < MIC < 12 μg/mL)	+++ (MIC ≦ 4 μg/mL)	+++ (MIC ≦ 4 μg/mL)	+++ (MIC ≦ 4 μg/mL)	+ (12 ≦ MIC ≦ 32 μg/mL)
Cn1cc(NC(=O)c2cc3ccccc3cn2)cc1C(=O)Nc1ccc(C(=O)Nc2cn(C)c(C(=O)NCCN3CCOCC3)n2)cc1 [Compound A-10]	>32 µg/mL	+++ (MIC ≦ 4 μg/mL)	+++ (MIC ≦ 4 μg/mL)	>32 µg/mL	+++ (MIC ≦ 4 μg/mL)	+++ (MIC ≦ 4 μg/mL)	+++ (MIC ≦ 4 μg/mL)	+++ (MIC ≦ 4 μg/mL)
Cn1cc(NC(=O)c2cc3ccccc3cn2)cc1C(=O)Nc1ccc(C(=O)Nc2cn(C)c(C(=O)NCCN3CCC(F)(F)CC3)n2)cc1 [Compound A-11]	>32 µg/mL	+++ (MIC ≦ 4 μg/mL)	+++ (MIC ≦ 4 μg/mL)	>32 µg/mL	+++ (MIC ≦ 4 μg/mL)	+++ (MIC ≦ 4 μg/mL)	+++ (MIC ≦ 4 μg/mL)	+++ (MIC ≦ 4 μg/mL)
CN1CCN(CCNC(=O)c2nc(NC(=O)c3ccc(NC(=O)c4cc(NC(=O)c5cc6ccccc6cn5)cn4C)cc3)cn2C)CC1 [Compound A-12]	>32 µg/mL	+++ (MIC ≦ 4 μg/mL)	+++ (MIC ≦ 4 μg/mL)	>32 µg/mL	+++ (MIC ≦ 4 μg/mL)	+++ (MIC ≦ 4 μg/mL)	+++ (MIC ≦ 4 μg/mL)	+++ (MIC ≦ 4 μg/mL)
